The text below walks through data of patent publication US20250057820A1, “AUTOTAXIN (ATX) INHIBITOR FOR THE TREATMENT OF PANCREATIC CANCER” (priority 2021, published 2025).

Series [1] deals with mPA6115-luc tumour cells. Briefly: orthotopic mPA6115-luc mouse model of pancreatic cancer. It is filed as in vivo. The note with it: 10 mg/kg BID oral gavage, female C57BL/6 mice, FIG. 2.
Procedure: This model is constituted by the implantation of mPA6115-luc cells originating from a spontaneous developed donor tumour in KPC mice into the pancreas of female wildtype C57BL/6 recipient mice.
Each mouse was inoculated into the subcapsular region of the pancreas with mPA6115-luc tumour cells (1×10^6) in 50 uL PBS with Matrigel (1:1). The date of tumour cell inoculation was denoted as day 0.
The randomization started 4 days after tumour cell inoculation based on the total flux (p/s, minimum flux>1E^6). 10 mice per group were assigned to treatment by BID oral gavage with vehicle (1% methylcellulose) or Compound 1 (10 mg/kg in 1% methylcellulose). Tumour growth and metastasis were imaged twice per week by bioluminescent imaging.
Series [2] deals with PANC-1 tumour cells. Briefly: subcutaneous PANC-1 xenograft mouse model of pancreatic cancer. The settings on record: BALB/c Nude mice, subcutaneous PANC-1, FIG. 3. It is filed as in vivo. Here is the method: The therapeutic efficacy of Compound 1 was evaluated in the subcutaneous PANC-1 mouse model of pancreatic cancer.
BALB/c Nude mice were inoculated subcutaneously in the right front flank region with PANC-1 tumour cells (5×10^6) in 0.1 ml of PBS. The date of tumour cell inoculation was denoted as day 0. The randomization started when the mean tumour size>100 mm^3. 10 mice were enrolled per study group. Tumour growth and body weights were measured twice per week.

The subject of series [3] is PANC-1 tumour cells. The note with it: for tumour growth inhibition: BALB/C nude mice, tumour weight at day 42. As to the method: The therapeutic efficacy of Compound 1 with or without gemcitabine was evaluated in the orthotopic PANC-1 mouse model of pancreatic cancer. This model is constituted by the implantation of PANC-1 tumor cells into the pancreas […] in BALB/C nude mice.
Each mouse was inoculated into the subcapsular region of the pancreas with PANC-1 tumour cells (3×10^6) in 50 uL PBS with Matrigel (1:1). The date of tumour cell inoculation was denoted as day 0. Randomization started 10 days after tumour cell inoculation based on body weight. 10 mice per group were assigned to treatment by oral gavage with vehicle (1% methylcellulose, BID), gemcitabine (25 mg/kg, Q4D), Compound 1 (10 mg/kg, BID), or Compound 1 (10 mg/kg, BID) and gemcitabine (25 mg/kg, Q4D). Tumor sizes were measured by weight after termination at day 42.

Series [4] deals with RC416 tumour cells. Briefly: orthotopic RC416 mouse model of pancreatic cancer (survival). It is filed as in vivo. The settings on record: Compound 1 10 mg/kg BID p.o., galunisertib 50 mg/kg BID p.o., gemcitabine 75 mg/kg QW i.p.; max 28 days treatment; FIG. 5. The text has this: This model is constituted by the implantation of RC416 cells originating from a spontaneous developed donor tumour in KPC mice into the pancreas of female wildtype C57BL/6 recipient mice. The pathology and tumour microenvironment in this model closely resemble human pancreatic cancer and is characterized by high circulating ATX and TGF-β.
The day of tumour cell inoculation was denoted as day 0. Randomization started 7 days after tumor cell inoculation, based on body weight. 5 mice per group were assigned to treatment, with vehicle (1% methylcellulose, BID p.o.), Compound 1 (10 mg/kg, BID p.o.), galunisertib (50 mg/kg, BID p.o.), gemcitabine (75 mg/kg, QW i.p.), or the combinations of Compound 1 plus gemcitabine, Compound 1 plus galunisertib and gemcitabine, and galunisertib plus gemcitabine, Mice were treated for a maximum of 28 days and anti-tumour activity was measured by survival.

Series [5] has as its system pancreatic cancer. The note with it: pancreatic cancer patients, standard treatment; cited from earlier work.
The mark [6] stands for this setting: Compound 1 10 mg/kg BID, gemcitabine 25 mg/kg Q4D.

Each structure is given as a SMILES string.

As to `C[C@H](NC(=O)CCc1nc2cccnc2n1Cc1ccc(OC(F)(F)F)cc1)c1ccc(Cl)cc1` [Compound 1, N—[(S)-1-(4-chloro-phenyl)-ethyl]-3-[3-(4-trifluoromethoxy-benzyl)-3H-imidazo[4,5-b]pyridin-2-yl]-propionamide], the “tumour outgrowth based on total bioluminescence” value in series [1] was “significantly reduced tumour outgrowth”. For the same compound, the tumour outgrowth entry in series [2] is recorded as “reduced tumour outgrowth”. The compound also yielded a tumour growth inhibition in series [3] (setting [6]) of 5%.
With `Nc1ccn([C@@H]2O[C@H](CO)[C@@H](O)C2(F)F)c(=O)n1` [gemcitabine], in series [4], the survival entry is reported as “limited survival benefit”. In addition, the “mice died or sacrificed for reaching humane endpoints (mortality)” value in series [3] (10 mice per group, Compound 1 10 mg/kg BID, gemcitabine 25 mg/kg Q4D) was determined as 5 mice. The same compound registered a tumour growth inhibition in series [3] (setting [6]) of 41%. For the same compound, the “Number of Mice on Day 42” value in series [3] (BALB/C nude, mouse, in vivo, 42 day) amounted to 5. Further, the “Pancreas Size (mg) on Day 42” value in series [3] (Day 42) is 549 + 44 mg. For the same compound, in series [5], the “average median overall survival” value is given as 6 months and the response rate is recorded as 5-10%.
